Test in all cases: Glasshouse assay for herbicidal activity (pre- and post-emergence), percentage phytotoxicity
Common to all, as to type: in vivo

The test system of experiment [1] is Alopecurus myosuroides (ALOMY). The settings on record: Alopecurus myosuroides. How it is done:
(§1) Test—Glasshouse Assay for Herbicidal Activity
(§2) Seeds of a variety of monocotyledonous and dicotyledonous test plants are sown in standard soil in pots. The plants are cultivated for one day (for pre-emergence (PRE)) or for about 12 days (for post-emergence (POST)) under controlled conditions in a glasshouse (warm climate species at 24/18° C., cool climate species at 20/16° C., both at day/night; 16 hours light; 65% humidity).
(§3) The test plants are then grown on, in a glasshouse (greenhouse) under controlled conditions (warm climate species at 24/18° C., cool climate species at 20/16° C., both at day/night; 16 hours light; 65% humidity) and are watered twice daily. 15 days after application of the test herbicide (15 DAA) (for post-emergence), and 20 days after application of the test herbicide (20 DAA) (for pre-emergence), the test plants are evaluated visually, and an assessed percentage phytotoxicity score is given for each herbicidal application on each plant species (with 100%=total damage to plant; 0%=no damage to plant).
(§4) The plant species tested are as follows: Alopecurus myosuroides (ALOMY), Avena fatua (AVEFA), Lolium perenne (LOLPE), Echinochloa crus-galli (ECHCG).

For experiment [2], the system named is Echinochloa crus-galli (ECHCG). The settings on record: Echinochloa crus-galli. The protocol: as §1, §2, §3, §4
Another experiment has as its system Lolium perenne (LOLPE). The settings on record: Lolium perenne. How it is done:
as §1, §2, §3, §4

Another experiment deals with Avena fatua (AVEFA). The settings on record: Avena fatua. The protocol:
as §1, §2, §3, §4

Where [3] appears, read: post-emergence, 360 h, 250 g/ha, post-emergence, 15 DAA, visual assessment (100%=total damage, 0%=no damage), read-out: Post-emergence herbicidal activity (percentage phytotoxicity) ALOMY POST.
Where [4] appears, read: pre-emergence, 480 h, 250 g/ha, pre-emergence, 20 DAA, visual assessment (100%=total damage, 0%=no damage), read-out: Pre-emergence herbicidal activity (percentage phytotoxicity) ALOMY PRE.
Setting [5] is: post-emergence, 360 h, 250 g/ha, post-emergence, 15 DAA, visual assessment (100%=total damage, 0%=no damage), read-out: Post-emergence herbicidal activity (percentage phytotoxicity) ECHCG POST.
[6] abbreviates: pre-emergence, 480 h, 250 g/ha, pre-emergence, 20 DAA, visual assessment (100%=total damage, 0%=no damage), read-out: Pre-emergence herbicidal activity (percentage phytotoxicity) ECHCG PRE.
The mark [7] stands for this setting: post-emergence, 360 h, 250 g/ha, post-emergence, 15 DAA, visual assessment (100%=total damage, 0%=no damage), read-out: Post-emergence herbicidal activity (percentage phytotoxicity) LOLPE POST.
The mark [8] stands for this setting: pre-emergence, 480 h, 250 g/ha, pre-emergence, 20 DAA, visual assessment (100%=total damage, 0%=no damage), read-out: Pre-emergence herbicidal activity (percentage phytotoxicity) LOLPE PRE.
Where [9] appears, read: post-emergence, 360 h, 250 g/ha, post-emergence, 15 DAA, visual assessment (100%=total damage, 0%=no damage), read-out: Post-emergence herbicidal activity (percentage phytotoxicity) AVEFA POST.
Where [10] appears, read: pre-emergence, 480 h, 250 g/ha, pre-emergence, 20 DAA, visual assessment (100%=total damage, 0%=no damage), read-out: Pre-emergence herbicidal activity (percentage phytotoxicity) AVEFA PRE.
[11] abbreviates: post-emergence, 360 h, POST-emergence, rate 250 g/ha, visual score 15 DAA (100%=total damage, 0%=no damage), read-out: Post-emergence herbicidal activity (percentage phytotoxicity) ALOMY POST.
[12] abbreviates: pre-emergence, 480 h, PRE-emergence, rate 250 g/ha, visual score 20 DAA (100%=total damage, 0%=no damage), read-out: Pre-emergence herbicidal activity (percentage phytotoxicity) ALOMY PRE.
[13] abbreviates: post-emergence, 360 h, POST-emergence, rate 250 g/ha, visual score 15 DAA (100%=total damage, 0%=no damage), read-out: Post-emergence herbicidal activity (percentage phytotoxicity) ECHCG POST.
The mark [14] stands for this setting: pre-emergence, 480 h, PRE-emergence, rate 250 g/ha, visual score 20 DAA (100%=total damage, 0%=no damage), read-out: Pre-emergence herbicidal activity (percentage phytotoxicity) ECHCG PRE.
Where [15] appears, read: post-emergence, 360 h, POST-emergence, rate 250 g/ha, visual score 15 DAA (100%=total damage, 0%=no damage), read-out: Post-emergence herbicidal activity (percentage phytotoxicity) LOLPE POST.
[16] abbreviates: pre-emergence, 480 h, PRE-emergence, rate 250 g/ha, visual score 20 DAA (100%=total damage, 0%=no damage), read-out: Pre-emergence herbicidal activity (percentage phytotoxicity) LOLPE PRE.
The mark [17] stands for this setting: post-emergence, 360 h, POST-emergence, rate 250 g/ha, visual score 15 DAA (100%=total damage, 0%=no damage), read-out: Post-emergence herbicidal activity (percentage phytotoxicity) AVEFA POST.
Setting [18] is: pre-emergence, 480 h, PRE-emergence, rate 250 g/ha, visual score 20 DAA (100%=total damage, 0%=no damage), read-out: Pre-emergence herbicidal activity (percentage phytotoxicity) AVEFA PRE.

This passage reports pest or weed control results from patent US10206394B2, “Herbicidal compounds” (Syngenta Participations AG, priority 2014, dated 2019).

Like-named read-outs stand apart in the source and are kept apart here.

With `Cc1cc(C)c(C2C(=O)CC(CC(=O)N[C@@H]3C[C@@H]3F)C2=O)c(C)c1` (stereo partly shown) [Compound B81], the pest or weed control at 250 g/ha in experiment [1] (setting [3]) was determined as 80%; in experiment [1] (setting [4]) it was 70%; in experiment [2] (setting [5]), 80%; in experiment [2] (setting [6]), 90%; with Lolium perenne (LOLPE) (setting [7]), 90%; with Lolium perenne (LOLPE) (setting [8]), 90%. For the same molecule, the figures for the pest or weed control at 250 g/ha in the experiment with Avena fatua (AVEFA) (setting [9]) and in the experiment with Avena fatua (AVEFA) (setting [10]) were 90% and 0%, respectively.

Turning to `C=Cc1cc(-c2ncc(F)cc2F)cc(C)c1C1C(=O)CC(CC(=O)NC(C)(C)C)C1=O` (stereo not shown) [Compound B382, N-tert-butyl-2-[3-[4-(3,5-difluoro-2-pyridyl)-2-methyl-6-vinyl-phenyl]-2,4-dioxo-cyclopentyl]acetamide], the pest or weed control at 250 g/ha was found to be 100% in experiment [1] (post-emergence, 360 h, Rate 250 g/ha, post-emergence, visual assessment 15 DAA, 100%=total damage, 0%=no damage, read-out: Post-emergence herbicidal activity (percentage phytotoxicity) ALOMY POST); 60% in experiment [1] (pre-emergence, 480 h, Rate 250 g/ha, pre-emergence, visual assessment 20 DAA, 100%=total damage, 0%=no damage, read-out: Pre-emergence herbicidal activity (percentage phytotoxicity) ALOMY PRE); 100% in experiment [2] (post-emergence, 360 h, Rate 250 g/ha, post-emergence, visual assessment 15 DAA, 100%=total damage, 0%=no damage, read-out: Post-emergence herbicidal activity (percentage phytotoxicity) ECHCG POST); 60% in experiment [2] (pre-emergence, 480 h, Rate 250 g/ha, pre-emergence, visual assessment 20 DAA, 100%=total damage, 0%=no damage, read-out: Pre-emergence herbicidal activity (percentage phytotoxicity) ECHCG PRE); 100% in the experiment with Lolium perenne (LOLPE) (post-emergence, 360 h, Rate 250 g/ha, post-emergence, visual assessment 15 DAA, 100%=total damage, 0%=no damage, read-out: Post-emergence herbicidal activity (percentage phytotoxicity) LOLPE POST); 60% with Lolium perenne (LOLPE) (pre-emergence, 480 h, Rate 250 g/ha, pre-emergence, visual assessment 20 DAA, 100%=total damage, 0%=no damage, read-out: Pre-emergence herbicidal activity (percentage phytotoxicity) LOLPE PRE). For the same molecule, the pest or weed control at 250 g/ha in the experiment on Avena fatua (AVEFA) (post-emergence, 360 h, Rate 250 g/ha, post-emergence, visual assessment 15 DAA, 100%=total damage, 0%=no damage, read-out: Post-emergence herbicidal activity (percentage phytotoxicity) AVEFA POST) stood at 100%; in the experiment with Avena fatua (AVEFA) (pre-emergence, 480 h, Rate 250 g/ha, pre-emergence, visual assessment 20 DAA, 100%=total damage, 0%=no damage, read-out: Pre-emergence herbicidal activity (percentage phytotoxicity) AVEFA PRE), 40%.

Regarding `Cc1ccc(CNC(=O)CC2CC(=O)C(c3c(C)cc(C)cc3C)C2=O)cc1` (stereo not shown) [Compound B14], the pest or weed control at 250 g/ha was 70% in experiment [1] (setting [3]); 70% in experiment [1] (setting [4]); 90% in experiment [2] (setting [5]); 70% in experiment [2] (setting [6]); 90% with Lolium perenne (LOLPE) (setting [7]); 90% in the experiment with Lolium perenne (LOLPE) (setting [8]). For the same molecule, the results for the pest or weed control at 250 g/ha in the experiment on Avena fatua (AVEFA) (setting [9]) and in the experiment with Avena fatua (AVEFA) (setting [10]) were 80% and 70%, respectively.

As for `C#CCN(C)C(=O)CC1CC(=O)C(c2c(C)cc(-n3cc(Cl)cn3)cc2C)C1=O` (stereo not shown) [Compound B230], the pest or weed control at 250 g/ha came to 100% in experiment [1] (setting [11]); 90% in experiment [1] (setting [12]); 100% in experiment [2] (setting [13]); 100% in experiment [2] (setting [14]); 90% in the experiment with Lolium perenne (LOLPE) (setting [15]); 90% in the experiment on Lolium perenne (LOLPE) (setting [16]). The figures for the pest or weed control at 250 g/ha in the experiment with Avena fatua (AVEFA) (setting [17]) and with Avena fatua (AVEFA) (setting [18]) were 100% and 90%, respectively.

Consider `C=CCNC(=O)CC1CC(=O)C(c2c(C)cc(-n3cc(Cl)cn3)cc2CC)C1=O` (stereo not shown) [Compound B236], for which the pest or weed control at 250 g/ha in experiment [1] (setting [11]) is 100%; in experiment [1] (setting [12]), 90%; in experiment [2] (setting [13]), 100%; in experiment [2] (setting [14]) it was 90%; in the experiment on Lolium perenne (LOLPE) (setting [15]), 100%; in the experiment on Lolium perenne (LOLPE) (setting [16]), 90%. The pest or weed control at 250 g/ha in the experiment on Avena fatua (AVEFA) (setting [17]) was determined as 100%; with Avena fatua (AVEFA) (setting [18]), 90%.

Consider `C=CCNC(=O)CC1CC(=O)C(c2c(C)cc(-c3ncc(Cl)cc3F)cc2C)C1=O` (stereo not shown) [Compound B116], for which the pest or weed control at 250 g/ha (in experiment [1] (setting [3]); in experiment [1] (setting [4]); in experiment [2] (setting [5]); in experiment [2] (setting [6]); with Lolium perenne (LOLPE) (setting [7]); in the experiment on Lolium perenne (LOLPE) (setting [8])) was 100% in each case. Moreover, the pest or weed control at 250 g/ha with Avena fatua (AVEFA) (setting [9]) is 100%; in the experiment on Avena fatua (AVEFA) (setting [10]), 90%.

`Cc1cc(-c2ncc(Cl)cc2F)cc(C)c1C1C(=O)CC(CC(=O)N2CCOCC2)C1=O` (stereo not shown) [Compound B93]: the pest or weed control at 250 g/ha worked out at 100% in experiment [1] (setting [3]); 80% in experiment [1] (setting [4]); 100% in experiment [2] (setting [5]); 100% in experiment [2] (setting [6]); 100% in the experiment with Lolium perenne (LOLPE) (setting [7]); 90% in the experiment on Lolium perenne (LOLPE) (setting [8]). The pest or weed control at 250 g/ha in the experiment on Avena fatua (AVEFA) (setting [9]) turned out to be 100%; in the experiment with Avena fatua (AVEFA) (setting [10]) it was 70%.

As for `COCC(C)(C)NC(=O)CC1CC(=O)C(c2c(C)cc(-c3ncc(F)cn3)cc2C)C1=O` (stereo not shown) [Compound B327], the pest or weed control at 250 g/ha in experiment [1] (setting [11]) is 100%; in experiment [1] (setting [12]), 100%; in experiment [2] (setting [13]), 100%; in experiment [2] (setting [14]), 100%; in the experiment with Lolium perenne (LOLPE) (setting [15]) it was 90%; in the experiment on Lolium perenne (LOLPE) (setting [16]), 100%. Also, the figures for the pest or weed control at 250 g/ha with Avena fatua (AVEFA) (setting [17]) and with Avena fatua (AVEFA) (setting [18]) were 100% and 80%, respectively.

For the molecule `Cc1cnc(CNC(=O)CC2CC(=O)C(c3c(C)cc(-c4cncnc4)cc3C)C2=O)cn1` (stereo not shown) [Compound A147], the pest or weed control at 250 g/ha in experiment [1] (post-emergence, 360 h, Rate 250 g/ha, post-emergence, assessed visually 15 DAA, 100%=total damage, 0%=no damage, read-out: Post-emergence herbicidal activity (percentage phytotoxicity) ALOMY POST) is 20%; in experiment [2] (post-emergence, 360 h, Rate 250 g/ha, post-emergence, assessed visually 15 DAA, 100%=total damage, 0%=no damage, read-out: Post-emergence herbicidal activity (percentage phytotoxicity) ECHCG POST), 60%; in the experiment on Lolium perenne (LOLPE) (post-emergence, 360 h, Rate 250 g/ha, post-emergence, assessed visually 15 DAA, 100%=total damage, 0%=no damage, read-out: Post-emergence herbicidal activity (percentage phytotoxicity) LOLPE POST), 0%; in the experiment with Avena fatua (AVEFA) (post-emergence, 360 h, Rate 250 g/ha, post-emergence, assessed visually 15 DAA, 100%=total damage, 0%=no damage, read-out: Post-emergence herbicidal activity (percentage phytotoxicity) AVEFA POST), 20%.

On to `Cc1cc(C)c(C2C(=O)CC(CC(=O)NC(C)(C)CCl)C2=O)c(C)c1` (stereo not shown) [Compound B39], for which the pest or weed control at 250 g/ha in experiment [1] (setting [3]) was 80%; in experiment [1] (setting [4]), 30%; in experiment [2] (setting [5]), 50%; in experiment [2] (setting [6]), 0%; in the experiment on Lolium perenne (LOLPE) (setting [7]), 60%; in the experiment with Lolium perenne (LOLPE) (setting [8]), 60%. Moreover, the pest or weed control at 250 g/ha was found to be 70% with Avena fatua (AVEFA) (setting [9]) and 30% with Avena fatua (AVEFA) (setting [10]).
